According to patent US8614068B2, “Process for producing hepcidin” (Hellenic Pasteur Institute, priority 2007, dated 2013):

Assays:
Type in all cases: cell-based, murine
RAW 264.7 macrophages = experiment: Labile Iron Pool (LIP) calcein assay; conditions: Hep-25His-treated RAW 264.7 macrophages
Method: FIG. 6. Recombinant tagged hepcidins increase the Labile Iron Pool in RAW 264.7 macrophages. RAW 264.7 macrophages were treated with 10 μM Hep-25His having the sequence of SEQ ID NO. 6, Hep-25MycHis having the sequence of SEQ ID NO. 8, Hep-20MycHis having the sequence of SEQ ID NO. 7 and negative peptide having the sequence of SEQ ID NO. 9 for 4 h at 37° C. PBS was used as negative and FAC at 30 μg/ml as positive control. Relative alterations of the LIP were monitored with calcein upon addition of isonicotinoyl-hydraxone salicylaldehyde. Data are expressed as mean±S.D. of two independent experiments performed in triplicates relative to control. **p<0.001, *p<0.05. Statistical analysis was performed with t-Test.
LIP assay—The fluorescent metalosensor calcein (Molecular Probes, Eugene, Oreg.) was used for the measurement of alterations in the levels of the LIP (Labile Iron Pool) (Murphy, A. T., Witcher, D. R., Luan, P., and Wroblewski, V. J. (2007) Blood 110, 1048-54). 1×10^6 RAW 264.7 macrophages were plated in 6-well plates. […] Fluorescence was measured with the Perkin Elmer LS55 fluorescent plate reader (Perkin Elmer LifeSciences, Boston Mass.) (488 nm excitation, 517 nm emission). […] Relative changes were expressed as percentage of the control. […]

ferroportin (FPN1) [1] = target: T1, ferroportin (FPN1) (Mus musculus, UniProt Q9JHI9); experiment: Western blot of ferroportin expression in macrophages
T1 construct: endogenous in cells; host or cells: RAW 264.7 murine macrophages
T1 sequence (Q9JHI9 1-570): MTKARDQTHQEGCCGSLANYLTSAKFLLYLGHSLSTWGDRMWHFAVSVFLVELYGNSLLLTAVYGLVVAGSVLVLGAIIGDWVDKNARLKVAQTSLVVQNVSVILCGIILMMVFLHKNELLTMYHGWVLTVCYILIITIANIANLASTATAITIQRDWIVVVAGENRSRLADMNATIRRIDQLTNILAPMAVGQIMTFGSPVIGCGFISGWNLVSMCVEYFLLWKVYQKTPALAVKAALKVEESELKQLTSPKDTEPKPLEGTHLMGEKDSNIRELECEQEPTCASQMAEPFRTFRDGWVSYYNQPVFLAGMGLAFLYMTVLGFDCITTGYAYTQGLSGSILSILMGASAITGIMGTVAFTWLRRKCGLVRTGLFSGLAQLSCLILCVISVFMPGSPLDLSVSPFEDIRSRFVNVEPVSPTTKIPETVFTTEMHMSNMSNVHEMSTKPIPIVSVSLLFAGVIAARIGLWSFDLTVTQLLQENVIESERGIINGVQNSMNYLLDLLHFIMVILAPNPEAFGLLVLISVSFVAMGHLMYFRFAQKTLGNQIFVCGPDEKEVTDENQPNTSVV
Method: A, RAW 264.7 macrophages were treated with 11 μM and 10 μM of synthetic hepcidin-25 (having the sequence of SEQ ID NO. 2) and Hep-25His (having the sequence of SEQ ID NO. 6) for 4 h at 37° C. or with PBS as negative control. Cell lysates were subjected to 8% SDS PAGE and Western Blot with antibodies against TfR1, Ferroportin and actin as loading control. B, The signal density of ferroportin, TfR1 and actin protein bands from two independent experiments were quantified by densitometry and their intensity relative to actin was calculated. […] Hep25-His, negative peptide and PBS was incubated with Raw 264.7 macrophages, followed by cross-linking with DSS. Cell lysates were incubated with Ni2-NTA and eluates were analyzed by Western blot using anti-FPN1 Ab. […] HEK293-Fpn cells were induced with ponasterone for 24 h and then treated with Hep25-His or synthetic hepcidin 25 (s. Hep25) for 3 h. Fluorescence was visualized with a Leica TCS confocal microscope.
Western blotting—1×10^6 cells (RAW 264.7, THP-1 or J774) were plated in […] plates and after 12-20 h cells were treated with hepcidins in serum-free DMEM for 4 h, at 37° C. Afterwards, cells were re-suspended in lysis buffer (1% Triton, 25 mM Hepes pH 7.4, 150 mM NaCl, 10% Glycerol, 5 mM EDTA, 0.5 mM PMSF, protein inhibitors (Roche, Mannheim, Germany) and quantified by Bradford assay (Biorad, Hercules, Calif.). 30 μg of cell lysate was analyzed on 8% SDS-PAGE. Proteins were transferred to Hybond C nitrocellulose membrane (Amersham Biosciences, Piscataway, N.J.) and the membranes were incubated with the primary antibodies rabbit anti-ferroportin (Alpha Diagnostics, San Antonio, Tex.), mouse anti-TfR1 (Zymed, Invitrogen, Carlsbad, Calif.) and mouse anti-β actin (Santa Cruz Biotech, Santa Cruz, Calif.), in a dilution of 1:1000, overnight at 4° C. After washing, the membranes were incubated with anti-rabbit and anti-mouse secondary antibodies conjugated with HRP, in a dilution of 1:5000 (DakoCytomation, Carpinteria, Calif.), for 1 h at room temperature. Specific signal was detected with a chemiluminescence assay kit (ECL, Amersham Biosciences, Piscataway, N.J.). The bands were quantified by densitometry using the Quantity-One (Biorad, Hercules, Calif.) software. Data are shown as means±SD. Statistical analysis was performed by student t-Test.

ferroportin (FPN1) [2] = target: T1, ferroportin (FPN1); experiment: as above; conditions: RAW 264.7, 1 μM, 4 h at 37° C.

Substance: hepcidin-25His [Hep-25His]
- retention of iron, LIP levels (RAW 264.7 macrophages): increase in LIP levels
- reduction of FPN1 in comparison to untreated cells (ferroportin (FPN1) [1]; RAW 264.7, 10 μM, 4 h at 37° C.): 48±3%
- decrease in ferroportin levels (ferroportin (FPN1) [1]; RAW 264.7 macrophages): ~50%
- effect of higher concentrations on FPN1 and TfR1 (ferroportin (FPN1) [1]; concentrations higher than 10 μM, data not shown): did not have a stronger effect
- reduction of FPN1 in comparison to untreated cells (ferroportin (FPN1) [2]): 37%±7
